Source: patent US20060100146A1, “AWAT-related methods and articles” (priority 2004, published 2006)
Values joined by “and” are separate entries in the source; they are usually repeats but may differ in a detail not shown here. Equal values may be shown once.

B1: DGAT2: human diacylglycerol acyltransferase 2, expressed in TG-null yeast; microsomes assayed (protein, UniProt Q96PD7 1-388, looked up)
Diacylglycerol …: MKTLIAAYSGVLRGERQAEADRSQRSHGGPALSREGSGRWGTGSSILSALQDLFSVTWLNRSKVEKQLQVISVLQWVLSFLVLGVACSAILMYIFCTDCWLIAVLYFTWLVFDWNTPKKGGRRSQWVRNWAVWRYFRDYFPIQLVKTHNLLTTRNYIFGYHPHGIMGLGAFCNFSTEATEVSKKFPGIRPYLATLAGNFRMPVLREYLMSGGICPVSRDTIDYLLSKNGSGNAIIIVVGGAAESLSSMPGKNAVTLRNRKGFVKLALRHGADLVPIYSFGENEVYKQVIFEEGSWGRWVQKKFQKYIGFAPCIFHGRGLFSSDTWGLVPYSKPITTVVGEPITIPKLEHPTQQDIDLYHTMYMEALVKLFDKHKTKFGLPETEVLEVN
modifications: yeast microsomes
notes: human diacylglycerol acyltransferase 2, expressed in TG-null yeast; microsomes assayed
B2: DGA2: acyl-CoA wax alcohol acyltransferase 1, synonym diacyl-glycerol acyltransferase 2; human enzyme expressed in yeast microsomes (protein, UniProt Q58HT5 1-328, looked up)
Acyl-CoA wax alcohol …: MAHSKQPSHFQSLMLLQWPLSYLAIFWILQPLFVYLLFTSLWPLPVLYFAWLFLDWKTPERGGRRSAWVRNWCVWTHIRDYFPITILKTKDLSPEHNYLMGVHPHGLLTFGAFCNFCTEATGFSKTFPGITPHLATLSWFFKIPFVREYLMAKGVCSVSQPAINYLLSHGTGNLVGIVVGGVGEALQSVPNTTTLILQKRKGFVRTALQHGAHLVPTFTFGETEVYDQVLFHKDSRMYKFQSCFRRIFGFYCCVFYGQSFCQGSTGLLPYSRPIVTVVGEPLPLPQIEKPSQEMVDKYHALYMDALHKLFDQHKTHYGCSETQKLFFL
modifications: yeast microsomes
notes: acyl-CoA wax alcohol acyltransferase 1, synonym diacyl-glycerol acyltransferase 2; human enzyme expressed in yeast microsomes
B3: hDC4: acyl-CoA wax alcohol acyltransferase 2, synonym human DGAT candidate gene 4; human enzyme expressed in yeast microsomes (protein, UniProt Q6E213 1-333, looked up)
Acyl-CoA wax alcohol …: MLLPSKKDLKTALDVFAVFQWSFSALLITTTVIAVNLYLVVFTPYWPVTVLILTWLAFDWKTPQRGGRRFTCVRHWRLWKHYSDYFPLKLLKTHDICPSRNYILVCHPHGLFAHGWFGHFATEASGFSKIFPGITPYILTLGAFFWMPFLREYVMSTGACSVSRSSIDFLLTHKGTGNMVIVVIGGLAECRYSLPGSSTLVLKNRSGFVRMALQHGVPLIPAYAFGETDLYDQHIFTPGGFVNRFQKWFQSMVHIYPCAFYGRGFTKNSWGLLPYSRPVTTIVGEPLPMPKIENPSQEIVAKYHTLYIDALRKLFDQHKTKFGISETQELEII
modifications: yeast microsomes
notes: acyl-CoA wax alcohol acyltransferase 2, synonym human DGAT candidate gene 4; human enzyme expressed in yeast microsomes

Legend:
human AWAT1 (DGA2) = target: T1, human AWAT1 (DGA2) (Homo sapiens, UniProt Q58HT5); test: In vitro AWAT substrate specificity assay, AWAT1 microsomes; type: biochemical; settings: for Activity of AWAT1 (DGA2) towards various wax alcohols / Activity of AWAT1 (DGA2) towards various acyl-CoAs: 20 μg microsomes, wax ester formed, vector control removed, mean +/- Std. dev., triplicate; for Activity of AWAT1 (DGA2) towards various wax alcohols: [14C]oleoyl-CoA as acyl donor; for Activity of AWAT1 (DGA2) towards various acyl-CoAs: [14C]cetyl alcohol as acyl acceptor
T1 construct: The full length DGA2 was sub cloned into the EcoRI and NotI sites of the pRS423-GP vector; made in house; host or cells: Saccharomyces cerevisiae SCY2056 (dga1Δ lro1Δ are2), galactose-inducible pRS423-GP vector; microsomes used
T1 sequence (Q58HT5 1-328): B2 Acyl-CoA wax alcohol …
Description: (§1) Acyl-CoA wax alcohol acyltransferase (AWAT) assays were performed as above with the following exceptions: 200 μM cetyl alcohol (unlabeled or [^14C]-labeled 10,000 dpm/nmol) was substituted for DAG, oleoyloleate was used as carrier, and reactions were incubated for 20 min in a final volume of 250 μl. After separation by TLC, the spot corresponding to wax ester was cut out and counted. For alcohol and acyl-CoA substrate specificity studies, microsomal preparations from DGA2 (20 μg) and hDC4 (10 μg) were used. Kill reactions and vector controls were included for all experiments. The various wax alcohols and acyl-Co A's were substituted for cetyl alcohol or oleoyl Co A at the concentrations specified above. Activity is presented as pmol/min/mg protein.
(§2) In vitro AWAT assays were performed using microsomal preparations from TG null yeast strains transformed with human AWAT1 (DGA2), AWAT2 (hDC4) or a vector control harboring no insert. AWAT1 (20 μg) and AWAT2 (10 μg) microsomes were assayed as described under Experimental Procedures. Activity is in pmol of wax ester formed per min/mg protein, expressed as a mean±Std. dev. from a representative experiment performed in triplicate. Vector control background has been removed. In vitro determination of alcohol and acyl-CoA substrate specificities were performed with [^14C]oleoyl-CoA and the indicated alcohols or [^14C]cetyl alcohol and the indicated acyl-CoA donors (Table 3A and 3B, respectively). Kill reactions were included for all experiments.

human AWAT2 (hDC4) = target: T2, human AWAT2 (hDC4) (Homo sapiens, UniProt Q6E213); test: In vitro AWAT substrate specificity assay, AWAT2 microsomes; type: biochemical; settings: for Activity of AWAT2 (hDC4) towards various wax alcohols / Activity of AWAT2 (hDC4) towards various acyl-CoAs: 10 μg microsomes, wax ester formed, vector control removed, mean +/- Std. dev., triplicate; for Activity of AWAT2 (hDC4) towards various wax alcohols: [14C]oleoyl-CoA as acyl donor; for Activity of AWAT2 (hDC4) towards various acyl-CoAs: [14C]cetyl alcohol as acyl acceptor
T2 construct: The full-length hDC4 was then sub cloned into the EcoRI site of the pRS423-GP vector; made in house; host or cells: Saccharomyces cerevisiae SCY2056 (dga1Δ lro1Δ are2), galactose-inducible pRS423-GP vector; microsomes used
T2 sequence (Q6E213 1-333): B3 Acyl-CoA wax alcohol …
Description: as §1, §2

[1] = system: TAG formation from dioleoylglycerol and [14C]oleoyl-CoA; test: In vitro DGAT (diacylglycerol esterification) assay in yeast microsomes; type: biochemical; settings: microsomes from TG-null yeast expressing the human enzyme; dioleoylglycerol + [14C]oleoyl-CoA; TAG formed; vector control subtracted; mean +/- Std. dev., 3 replicate experiments
Description: (§3) A dilute inoculation of each strain into 500 mL of SC-His+2% galactose+1% raffinose was grown overnight at 30° C. into log phase. Cells were washed and lysed, and microsomes were prepared from a 100,000 g spin, as previously described (39). Protein concentrations were determined (40) and diacylglycerol esterification assays were performed as described previously (17,19,41). In brief, microsomes (100 μg) were preincubated for 5 min at 37° in 100 mM TRIS, pH 7.5 containing 0.25 M sucrose, 1 mM EDTA, 10 mM MgCl2, 20 μM fatty acid free BSA, 160 μM dioleoylglycerol (in 5 μl acetone, final volume 200 μl). The reaction was initiated by the addition of [^14C]oleoyl-CoA (10-20,000 dpm/nmol, 40 μM) and stopped after 10 min by the addition of 4 ml of chloroform:methanol (2:1 v/v). Carrier TAG (10 μg) and internal standard ([^3H]triolein, 30,000 dpm) were added followed by 0.8 ml water to separate phases. The lower chloroform layer containing the lipids was removed, evaporated to dryness, resuspended in 50 μl chloroform and individual lipid classes separated on Varian chromatography paper using a hexane:diethyl ether:acetic acid (170:30:1 v/v) mobile phase. The spot corresponding to TG was cut out and counted.
(§4) Microsomes from TG-null yeast strains transformed with human DGAT2, DGA2, hDC3, or hDC4 were incubated in the presence of dioleoylglycerol or cetyl alcohol and [^14C]oleoyl-CoA and assayed for esterification as described in Experimental Procedures. Data are expressed as pmol of neutral lipid (TAG or Wax ester) formed per min/mg protein as a mean±Std. dev. DGAT activities are from 3 replicate experiments and AWAT activities are from a representative experiment performed in triplicate. Background levels to the assay from strains transformed with vector control have been subtracted.

[2] = system: wax ester formation from cetyl alcohol and oleoyl-CoA; test: In vitro AWAT (acyl-CoA wax alcohol acyltransferase) assay in yeast microsomes; type: biochemical, human
Description: as §3, §1, §4

[3] = microsomes from TG-null yeast expressing the human enzyme, cetyl alcohol + [14C]oleoyl-CoA, wax ester formed, vector control subtracted, mean +/- Std. dev., triplicate
[4] = [14C]cetyl alcohol rather than radiolabeled oleoyl CoA as monitor of ester formation

Molecule | Activity of AWAT1 (DGA2) towards various wax alcohols (human AWAT1 (DGA2)) | Activity of AWAT2 (hDC4) towards various wax alcohols (human AWAT2 (hDC4)) | Activity of AWAT1 (DGA2) towards various acyl-CoAs (human AWAT1 (DGA2)) | Activity of AWAT2 (hDC4) towards various acyl-CoAs (human AWAT2 (hDC4)) | other results
CCCCCCCCCCCCCCCCCCCCO [Arachidyl C-20, arachidyl alcohol] | 22 +/− 4 pmol/min/mg protein | 27 +/− 4 pmol/min/mg protein |  |  | Utilization by AWAT1 relative to decyl alcohol (human AWAT1 (DGA2); oleoyl CoA as acyl donor): about 5%
CCCCCCCCCCCCCCCCO [Cetyl (Palmityl) C-16, cetyl alcohol] | 83 +/− 6 pmol/min/mg protein | 665 +/− 54 pmol/min/mg protein |  |  | 
CCCCCCCCCCO [Decyl C-10, decyl alcohol] | 419 +/− 180 pmol/min/mg protein | −50 +/− 277 pmol/min/mg protein |  |  | AWAT2 activity using the alcohol (in words) (human AWAT2 (hDC4); oleoyl CoA as acyl donor): no activity
CCCCCCCC/C=C\CCCCCCCC(=O)SCCNC(=O)CCNC(=O)[C@H](O)C(C)(C)COP(=O)(O)OP(=O)(O)OC[C@H]1O[C@@H](n2cnc3c(N)ncnc32)[C@H](O)[C@@H]1OP(=O)(O)O [Oleoyl C-18:1, oleoyl CoA] |  |  | 113 +/− 7 pmol/min/mg protein | 1232 +/− 349 pmol/min/mg protein | Utilization by AWAT1 relative to stearoyl CoA (C18:0) (human AWAT1 (DGA2); cetyl alcohol as acyl acceptor): 20%
CCCCCCCC/C=C\CCCCCCCCO [Oleyl C-18:1] | 247 +/− 23 pmol/min/mg protein | 892 +/− 106 pmol/min/mg protein |  |  | 
CCCCCC/C=C\CCCCCCCC(=O)SCCNC(=O)CCNC(=O)[C@H](O)C(C)(C)COP(=O)(O)OP(=O)(O)OC[C@H]1O[C@@H](n2cnc3c(N)ncnc32)[C@H](O)[C@@H]1OP(=O)(O)O [Palmitoleoyl C-16:1, palmitoleoyl CoA] |  |  | −20 +/− 25 pmol/min/mg protein | 1125 +/− 220 pmol/min/mg protein | AWAT1 activity using the acyl-CoA (in words) (human AWAT1 (DGA2); cetyl alcohol as acyl acceptor): no activity
CCCCCC/C=C\CCCCCCCCO [Palmitoleyl C-16:1] | 184 +/− 29 pmol/min/mg protein | 582 +/− 117 pmol/min/mg protein |  |  | 
CCCCCCCCCCCCCCCC(=O)SCCNC(=O)CCNC(=O)[C@H](O)C(C)(C)COP(=O)(O)OP(=O)(O)OC[C@H]1O[C@@H](n2cnc3c(N)ncnc32)[C@H](O)[C@@H]1OP(=O)(O)O [Palmitoyl C-16] |  |  | 390 +/− 121 pmol/min/mg protein | 524 +/− 164 pmol/min/mg protein | 
CCCCCCCCCCCCCCCCCC(=O)SCCNC(=O)CCNC(=O)[C@H](O)C(C)(C)COP(=O)(O)OP(=O)(O)OC[C@H]1O[C@@H](n2cnc3c(N)ncnc32)[C@H](O)[C@@H]1OP(=O)(O)O [Stearoyl C-18, stearoyl CoA] |  |  | 656 +/− 39 pmol/min/mg protein | 549 +/− 38 pmol/min/mg protein | 
CCCCCCCCCCCCCCCCCCO [Stearyl C-18] | 27 +/− 5 pmol/min/mg protein | 138 +/− 24 pmol/min/mg protein |  |  | 
B1 |  |  |  |  | DGAT Activity [1]: 65.4 pmol/min/mg protein and 65.4 +/− 3.4 pmol/min/mg protein; AWAT Activity [2, 3]: −11.5 +/− 1.3 pmol/min/mg protein
B2 |  |  |  |  | DGAT Activity [1]: 7.8 +/− 3.2 pmol/min/mg protein; AWAT Activity [2, 4]: 113 pmol/min/mg; AWAT Activity [2, 3]: 31.7 pmol/min/mg protein and 31.7 +/− 17.4 pmol/min/mg protein
B3 |  |  |  |  | DGAT Activity [1]: 11.4 +/− 3.4 pmol/min/mg protein; AWAT Activity [2, 4]: 1232 pmol/min/mg; AWAT Activity [2, 3]: 1066 pmol/min/mg protein and 1066 +/− 18.6 pmol/min/mg protein
